Like-named read-outs stand apart in the source and are kept apart here.
What was measured:
[1] = tested on: Dengue-2 (Strain New Guinea C); assay: Viral yield assay against Dengue-2 in Vero cells; type: cell-based, Dengue virus; settings: Dengue virus
Procedure, shortened: (§1)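 Virus yield, titered on Vero cells from cultures harvested at 48 h post infection, gave the EC50. Cultures were infected at MOI 0.1 with dengue-2 and treated with compound or DMSO at 37° C. DENV-1 and DENV-4 were determined similarly.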

[2] = tested on: four serotypes of dengue; assay: Yield assays against each of the four serotypes of dengue; type: cell-based, Dengue virus; settings: all four serotypes
Procedure: Initially, the chemical structures of the hit compounds were examined for chemical tractability. […] Hits that passed this medicinal chemistry filter were evaluated for their potency. Compound potency was determined by evaluating inhibitory activity across a broad range of concentrations. Nonlinear regression was used to generate best-fit inhibition curves and to calculate the 50% effective concentration (EC50). The selectivity or specificity of a given compound is typically expressed as a ratio of its cytotoxicity to its biological effect. A cell proliferation assay is used to calculate a 50% cytotoxicity concentration (CC50); the ratio of this value to the EC50 is referred to as the therapeutic index (T.I.=CC50/EC50). Two types of assays have been used to determine cytotoxicity, both of which are standard methods for quantitating the reductase activity produced in metabolically active cells (22). […] Verification that these compounds act against each of the four serotypes of dengue was done with yield assays carried out at several drug concentrations, and the titer determined for each.
Compounds that were active in the primary screen were tested for activity in viral yield assays. […] The EC50 was calculated through ExcelFit. Activities against other serotypes of dengue virus were determined in a similar way.

[3] = tested on: DENV-4; assay: Viral yield assay against DENV-4 in Vero cells; type: cell-based; settings: Dengue virus
Procedure, shortened: as §1

[4] = tested on: DENV-3; assay: Viral yield assay against DENV-3 in Vero cells; type: cell-based; settings: Dengue virus
Procedure, shortened: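 Progeny virus from compound-treated Vero monolayers infected at an MOI of 0.1 is collected after 48 h at 37° C and titered on Vero cells. DMSO serves as control.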

[5] = tested on: DENV-1; assay: Viral yield assay against DENV-1 in Vero cells; type: cell-based; settings: Dengue virus
Procedure, shortened: as §1

[6] = tested on: dengue; settings: cited from earlier work
[7] = tested on: dengue; settings: mouse model; cited from earlier work
[8] = DENV2, viral yield assay, Vero cells, MOI 0.1, 48 hours post infection, read-out: Activity (EC50 in μM) DENV-2

Nc1c(C(=O)Nc2nnc(-c3ccccc3)s2)sc2nc3c(cc12)CCCCC3 [Compound 1, 3-Amino-6,7,8,9-tetrahydro-5H-1-thia-10-aza-cyclohepta[f]indene-2-carboxylic acid (5-phenyl-[1,3,4]thiadiazol-2-yl)-amide]
EC50 ([1]; Vero cells, MOI 0.1, harvested 48 hours post infection, read-out: Activity (EC50 class) against Dengue-2 Virus in Vero cells): < 5 µM | Activity against serotypes of dengue [2]: activity against all four serotypes of dengue

COc1cccc(-c2ccc3c(N)c(C(=O)Nc4ccc(F)cc4)sc3n2)c1 [Compound 510, 3-amino-N-(4-fluorophenyl)-6-(3-methoxyphenyl)thieno[2,3-b]pyridine-2-carboxamide]
EC50 ([3]; DENV4, viral yield assay): < 5 µM | EC50 ([4]; DENV3, viral yield assay): < 5 µM | EC50 ([1]; DENV2, Vero, 48 h, read-out: Activity (EC50 in μM) DENV-2): < 5 µM | EC50 ([5]; DENV1, viral yield assay): < 5 µM

CSc1ccc(NC(=O)c2sc3nc(-c4ccc(F)cc4)ccc3c2N)cc1 [Compound 625, 3-amino-6-(4-fluorophenyl)-N-(4-methylsulfanylphenyl)thieno[2,3-b] pyridine-2-carboxamide]
EC50 ([3]; DENV4, viral yield assay): > 25 µM | EC50 ([4]; DENV3, viral yield assay): < 5 µM | EC50 [1, 8]: < 5 µM | EC50 ([5]; DENV1, viral yield assay): < 5 µM

CCCCSc1nc2ccc(NC(=O)c3sc4nc(-c5cccc(OC)c5)ccc4c3N)cc2s1 [Compound 570, 3-amino-N-(2-butylsulfanyl-1,3-benzo-thiazol-6-yl)-6-(3-methoxyphenyl)thieno [2,3-b]pyridine-2-carboxamide]
EC50 ([3]; DENV4, viral yield assay): < 5 µM | EC50 ([4]; DENV3, viral yield assay): < 5 µM | EC50 [1, 8]: < 5 µM | EC50 ([5]; DENV1, viral yield assay): < 5 µM

CCNc1c(C(=O)Nc2cccc(C(F)(F)F)c2)sc2nc(-c3cccs3)ccc12 [Compound 321, 3-(ethylamino)-6-(2-thienyl)-N-[3-(trifluoromethyl)phenyl]thieno[2,3-b]pyridine-2-carboxamide]
EC50 ([3]; DENV4): < 5 µM | EC50 ([4]; DENV3): < 5 µM | EC50 ([1]; DENV2, Vero cells, read-out: Activity (EC50 in μM) DENV-2): < 5 µM | EC50 ([5]; DENV1): < 5 µM

NC(=O)c1ncn([C@@H]2O[C@H](CO)[C@@H](O)[C@H]2O)n1 [ribavirin, Ribavirin]
Adverse effects induced ([6]; animal model, literature): induced anemia and thrombocytosis | Protection against dengue ([6]; rhesus monkey model): did not show protection | Protection against dengue [7]: did not show protection

Nc1c(C(=O)Nc2ccc(Cl)cn2)sc2nc(-c3ccc(Cl)cc3)ccc12 [Compound 352, 3-amino-6-(4-chlorophenyl)-N-(5-chloro-2-pyridyl)thieno [2,3-b]pyridine-2-carboxamide]
EC50 ([3]; DENV4, viral yield assay): < 5 µM | EC50 ([4]; DENV3, viral yield assay): < 5 µM | EC50 [1, 8]: < 5 µM | EC50 ([5]; DENV1, viral yield assay): < 5 µM

COc1ccc(Cl)cc1NC(=O)c1sc2nc(-c3ccc(OC)c(OC)c3)ccc2c1N [Compound 532, 3-amino-N-(5-chloro-2-methoxy-phenyl)-6-(3,4-dimethoxyphenyl)thieno[2,3-b] pyridine-2-carboxamide]
EC50 ([3]; DENV4, viral yield assay): < 5 µM | EC50 ([4]; DENV3, viral yield assay): < 5 µM | EC50 [1, 8]: < 5 µM | EC50 ([5]; DENV1, viral yield assay): < 5 µM

Nc1c(C(=O)Nc2ccc(OC(F)(F)F)cc2)sc2nc(-c3cccs3)ccc12 [Compound 428, 3-amino-6-(2-thienyl)-N-[4-(trifluoromethoxy)phenyl]thieno[2,3-b] pyridine-2-carboxamide]
EC50 ([3]; DENV4, viral yield assay): < 5 µM | EC50 ([4]; DENV3, viral yield assay): < 5 µM | EC50 [1, 8]: < 5 µM | EC50 ([5]; DENV1, viral yield assay): < 5 µM

Source: patent US20170121344A1 (Siga Technologies, Inc., priority 2009, published 2017)
